{"source": "paper PMC12057336", "about": "(Antimicrobial Agents and Chemotherapy, 2025)", "key": {"primary rat hepatocytes": {"system": "primary rat hepatocytes", "settings": "for substrate stability in control incubation: absence of hepatocytes; for substrate stability in control incubation / remaining percentage: 1 µM; for remaining percentage: freshly isolated normal rat hepatocytes; for remaining percentage / decrease of formation compared to normal rat hepatocytes: 6 h; for decrease of formation compared to normal rat hepatocytes: linezolid 1 µM", "experimental": "Primary rat hepatocytes were isolated from normal, CCl4-induced, and 5/6 Nx rats according to the previously described two-step collagenase method ([36]). Rats were anesthetized with urethane (1 g/kg), their abdomens were opened, and their portal veins were cannulated with a needle. The liver was perfused with HBSS solution (without calcium and magnesium ions) containing 5 mM EGTA at a rate of 50–60 mL/min using a peristaltic pump until the blood in the liver was removed. HBSS solution containing 7.5 mg/50 mL collagenase was perfused for 20 min until the liver was completely softened and the surface collapsed. The liver was gently removed and placed in a precooled HBSS solution containing 10% FBS. Hepatocytes were eluted and centrifuged at 500 × g for 5 min, and the supernatant was removed to obtain primary rat hepatocytes. Isolated primary rat hepatocytes were washed three times and suspended in DMEM containing 10% FBS, 100 µg/mL streptomycin, 100 U/ml penicillin, and 10 µg/mL insulin at pH 7.65.\nFreshly isolated rat hepatocytes at a density of 1.0 × 10^6 cells/well were placed in plates pre-coated with collagen and incubated for 18–24 h in a humidified incubator at 37°C and 5% CO2. […] Control incubations were performed in the absence of hepatocytes to test the substrate stability. Three replicate samples (1 mL each) were collected after 1, 2, 4, and 6 h of incubation. Then, 800 µL of methanol was immediately added, and the samples were transferred to a freezer (−20°C) to terminate metabolism. Hepatocytes were quickly washed three times with ice-cold HBSS and then lysed by the addition of 300 µL of purified water.\nAn AB Sciex 4000 Mass Spectrometer (AB Sciex, Framingham, MA, USA) and Shimadzu LC 20 series (Shimadzu, Kyoto, Japan) were used for HPLC-MS/MS. […] The Phenomenex Synergi Hydro-RP column (30 mm × 2 mm, 4 µm, Phenomenex Inc., Torrance, CA, USA) was used for chromatographic separation. The mobile phase consisted of 0.1% (vol/vol) formic acid in water (A) and 0.1% (vol/vol) formic acid in acetonitrile (B). The gradient conditions were as follows: 0–1.4 min, 15%–80% B; 1.4–1.8 min, 80% B; 1.8–1.81 min, return to 15% B; 1.81–2.1 min, equilibrium. The flow rate was 450 µL/min. Data acquisition and analysis were performed using the Analyst software (version 1.4.1, AB Sciex).\n(§1) Atotal is the total cumulative amount excreted in urine over 24 h. D is the administered dose. The scale factor is 4,680 (10^6 cells/kg). All data are expressed as mean ± standard deviation (SD). Statistical analysis was performed using Student’s two-tailed unpaired t-test or nonparametric Mann-Whitney U test with SPSS Statistics 19.0 (SPSS Inc., Chicago, IL, USA). Statistical significance was set at P < 0.05."}, "[1]": {"assay": "Serum biochemical parameters of CCl4-induced rats", "assay_type": "in vivo, rat"}, "[2]": {"settings": "cited from earlier work"}, "megakaryocytic cells": {"system": "megakaryocytic cells", "settings": "cited from earlier work"}, "in vivo": {"assay": "in vivo", "settings": "rat, in vivo; for half-life: t1/2", "excerpt": "The control group rats were intraperitoneally injected with equal volumes of soybean oil. […] The upper and lower poles of the left kidney were removed under urethane anesthesia (1 g/kg; administered by i.p. injection). One week later, the right kidney was completely excised. Rats in the control group underwent a sham operation ([35]). Serum creatinine (CREA), blood urea nitrogen (BUN), aspartate aminotransferase (AST), alanine aminotransferase (ALT), alkaline phosphatase (ALP), lactate dehydrogenase (LDH), and total bilirubin (TBIL) levels were measured using commercial kits (Shanghai Enzyme-linked Biotechnology Co., Ltd., Shanghai, China) according to the protocols described by the manufacturer before pharmacokinetic experiments.\nThe rats were first divided into two groups: i.v. or i.g. administration groups. These two groups were further divided into the following four subgroups (n = 5): soybean oil-treated control rats, CCl4-induced rats, sham-operated control rats, and 5/6 Nx rats. […] Blood samples (200 µL) were collected from the retro-orbital venous plexus into heparinized tubes at 0 (pre-dose), 0.25, 0.5, 0.75, 1, 2, 3, 4, 6, 8, 12, and 24 h after i.g. administration, and at 0 (pre-dose), 0.083, 0.25, 0.5, 0.75, 1, 2, 3, 4, 6, 8, 12, and 24 h after i.v. administration. Plasma samples were separated by centrifugation at 6,000 × g for 5 min at 4°C and stored at −80°C until further analysis using HPLC.\nChromatographic separation was performed using the SinoPak BEH T-C18 column (4.6 mm × 150 mm, 5 µm, Hi-tech Zone, China) at 35°C. A photodiode array detector was set at a wavelength of 254 nm. The mobile phase consisted of 0.1% (vol/vol) formic acid in water (A) and acetonitrile (B). The gradient conditions were as follows: 0–4.0 min, 14%–86% B; 4.0–5.0 min, […]; 5.0–5.7 min, return to 14% B; 5.7–8.0 min, equilibrium. The flow rate was 1.0 mL/min.\nPlasma and tissue homogenate samples (100 µL) were mixed with 10 µL of IS (50.0 mg/L) and 200 µL of acetonitrile, followed by vortex-mixing for 3 min. The mixture was centrifuged at 15,000 × g for 15 min at 4°C. Then, 5 µL of the supernatant was analyzed. The urine samples were diluted and directly injected for measurement.\nThe area under the plasma concentration-time curve from 0 to infinity (AUC0-∞), time to maximum concentration (tmax), Cmax, t1/2, CL, and Vd were calculated by non-compartmental model analysis using the Phoenix 8.1.0 WinNonlin software (Pharsight Corp, Princeton, NJ, USA). The renal clearance (CLr), in vitro hepatic clearance (CLint, in vitro), and bioavailability (F) were calculated using the following equations:\nF (%) = Div×AUC0−∞, ig/Dig×AUC0−∞, iv\nas §1"}, "[3]": {"assay": "Tissue distribution after i.g. or i.v. linezolid in control, CCl4-induced and 5/6 Nx rats", "assay_type": "in vivo, rat", "settings": "after i.g. or i.v. linezolid; LLOQ 0.25 mg/L", "excerpt": "These two groups were further divided into the following three subgroups (n = 4): control rats, CCl4-induced rats, and 5/6 Nx rats. […] The rats were euthanized immediately after blood sampling. The brain, heart, lungs, liver, kidneys, and small intestine were collected. The collected tissues were washed and homogenized in normal saline (three-fold volume of each sample weight) using a multi-sample tissue grinder (Tissuelyser-48L; Shanghai Jingxin Industrial Development Co. Ltd., Shanghai, China). After centrifugation of the homogenate samples at 12,000 × g for 10 min at 4°C, the supernatants were stored at −80°C.\nThe flow rate was 1.0 mL/min.\nThen, 5 µL of the supernatant was analyzed."}}, "note": "Like-named read-outs stand apart in the source and are kept apart here.", "data": [{"smiles": "O=c1ccc2ccc(O)cc2o1", "note": "[7-hydroxycoumarin]", "values": [{"measurement": "substrate stability in control incubation", "setting": "primary rat hepatocytes", "result": "No reductions"}, {"measurement": "remaining percentage", "setting": "primary rat hepatocytes", "result": "< 5", "unit": "%"}]}, {"smiles": "ClC(Cl)(Cl)Cl", "note": "[CCl4, Carbon tetrachloride]", "values": [{"measurement": "serum ALT relative to soybean oil-treated control rats", "setting": "[1]", "result": 6.92, "unit": "fold"}, {"measurement": "serum AST relative to soybean oil-treated control rats", "setting": "[1]", "result": 10.7, "unit": "fold"}, {"measurement": "serum LDH relative to soybean oil-treated control rats", "setting": "[1]", "result": 1.86, "unit": "fold"}, {"measurement": "serum TBIL relative to soybean oil-treated control rats", "setting": "[1]", "result": 8.40, "unit": "fold"}, {"measurement": "ALP", "setting": "[1]; 2.5 mL/kg i.p., 24 h, serum", "result": "257.1 ± 94.3", "unit": "U/L"}, {"measurement": "ALT", "setting": "[1]; 2.5 mL/kg i.p., 24 h, serum", "result": "418.8 ± 129.4", "unit": "U/L"}, {"measurement": "AST", "setting": "[1]; 2.5 mL/kg i.p., 24 h, serum", "result": "2399.5 ± 203.2", "unit": "U/L"}, {"measurement": "CREA", "setting": "[1]; 2.5 mL/kg i.p., 24 h, serum", "result": "17.1 ± 7.3", "unit": "µmol/L"}, {"measurement": "LDH", "setting": "[1]; 2.5 mL/kg i.p., 24 h, serum", "result": "2477.6 ± 220.8", "unit": "U/L"}, {"measurement": "TBTL", "setting": "[1]; 2.5 mL/kg i.p., 24 h, serum", "result": "4.2 ± 2.0", "unit": "µmol/L"}]}, {"smiles": "C[C@]12CC[C@H]3[C@@H](CCC4=CC(=O)CC[C@@]43C)[C@@H]1CC[C@@H]2O", "note": "[testosterone]", "values": [{"measurement": "substrate stability in control incubation", "setting": "primary rat hepatocytes", "result": "No reductions"}, {"measurement": "remaining percentage", "setting": "primary rat hepatocytes", "result": "less than 2%"}]}, {"smiles": "CC(=O)NC[C@H]1CN(c2ccc(N(CCO)CC(=O)O)c(F)c2)C(=O)O1", "note": "[PNU-142586]", "values": [{"measurement": "accumulation in patients with renal failure", "setting": "[2]", "result": "accumulated"}, {"measurement": "share of dosed linezolid in the urine", "setting": "[2]; humans", "result": "more than 30%"}, {"measurement": "cytotoxic effects on platelet precursor cell lines", "setting": "megakaryocytic cells", "result": "cytotoxic effects"}, {"measurement": "decrease of CLr in comparison to sham-operated control rats", "setting": "in vivo; Sprague-Dawley", "result": 33.3, "unit": "%"}, {"measurement": "share of the total plasma concentrations", "setting": "in vivo; Sprague-Dawley", "result": "5.6–8.5%"}, {"measurement": "AUC0-∞ relative to sham-operated control rats", "setting": "in vivo; Sprague-Dawley, iv", "result": 2.82, "unit": "fold"}, {"measurement": "decrease of AUC0-∞ compared to soybean oil-treated control rats", "setting": "in vivo; Sprague-Dawley, iv", "result": 13.6, "unit": "%"}, {"measurement": "decrease of CLr in comparison to sham-operated control rats", "setting": "in vivo; Sprague-Dawley, iv", "result": 33.3, "unit": "%"}, {"measurement": "t1/2 relative to control rats", "setting": "in vivo; Sprague-Dawley, iv", "result": 1.41, "unit": "fold"}, {"measurement": "t1/2 relative to sham-operated control rats", "setting": "in vivo; Sprague-Dawley, iv", "result": 1.53, "unit": "fold"}, {"measurement": "Cmax", "setting": "in vivo; Sprague-Dawley, iv, 25 mg/kg", "result": "1690 ± 230", "unit": "ng/mL"}, {"measurement": "half-life", "setting": "in vivo; Sprague-Dawley, iv, 25 mg/kg", "result": "2.11 ± 0.42", "unit": "h"}, {"measurement": "AUC0-∞ relative to sham-operated control rats", "setting": "in vivo; Sprague-Dawley, po", "result": 1.88, "unit": "fold"}, {"measurement": "decrease of AUC0-∞ compared to soybean oil-treated control rats", "setting": "in vivo; Sprague-Dawley, po", "result": 10.4, "unit": "%"}, {"measurement": "t1/2 relative to control rats", "setting": "in vivo; Sprague-Dawley, po", "result": 1.32, "unit": "fold"}, {"measurement": "t1/2 relative to sham-operated control rats", "setting": "in vivo; Sprague-Dawley, po", "result": 1.15, "unit": "fold"}, {"measurement": "Cmax", "setting": "in vivo; Sprague-Dawley, po, 63 mg/kg", "result": "1860 ± 210", "unit": "ng/mL"}, {"measurement": "half-life", "setting": "in vivo; Sprague-Dawley, po, 63 mg/kg", "result": "4.31 ± 0.52", "unit": "h"}, {"measurement": "Tmax", "setting": "in vivo; Sprague-Dawley, po, 63 mg/kg, tmax", "result": "2.8 ± 0.45", "unit": "h"}, {"measurement": "cumulative urinary excretion rate", "setting": "in vivo", "result": 3.5, "unit": "%"}, {"measurement": "detection in brain, heart, lung, liver, kidney, or small intestine tissues", "setting": "[3]", "result": "No PNU-142586 was detected"}, {"measurement": "decrease of formation compared to normal rat hepatocytes", "setting": "primary rat hepatocytes; 5/6 Nx rat hepatocytes", "result": 28.9, "unit": "%"}, {"measurement": "decrease of formation compared to normal rat hepatocytes", "setting": "primary rat hepatocytes; hepatocytes from CCl4-induced rats", "result": 95.6, "unit": "%"}]}]}
